Test results taken from publication doi:10.1101/2024.08.19.608619, “Discovery of potent SARS-CoV-2 nsp3 macrodomain inhibitors uncovers lack of translation to cellular antiviral response” (bioRxiv, 2024).
Where two headings read alike, the source gives them in different places.

Experiments:
Experiment in all cases: biochemical
Set-up in all cases: In vitro kinase panel profiling, per cent remaining kinase activity at 10 uM
[1] = biological target: T1, PI3 Kinase (p110δ/p85α)(h) (Homo sapiens, UniProt O00329); conditions: atp_concentration=200, read-out: % of control remaining
T1 construct: gene PIK3CD
Source text: (§1) We derisk potential for off-target activity by profiling the compound in a CEREP panel, a standard secondary pharmacology assessment, as well as a kinase panel to derisk a potential hinge-binding motif in our leads, and a PARP panel to derisk activity against human […]. Reassuringly, the compounds are selective, with the only off-targets being moderate human CHRM2 and KOR receptors activity associated with ASAP-0011198.

[2] = biological target: T2, MEK1(h) (Homo sapiens, UniProt Q02750); conditions: atp_concentration=10, read-out: % of control remaining
T2 construct: gene MAP2K1
Source text: as §1

[3] = biological target: SRPK1(h) (Homo sapiens, UniProt Q96SB4); conditions: atp_concentration=10, read-out: % of control remaining
Source text: as §1

[4] = biological target: T3, PI3 Kinase (p110α/p85α)(h) (Homo sapiens, UniProt P42336); conditions: atp_concentration=200, read-out: % of control remaining
T3 construct: gene PIK3CA
Source text: as §1

[5] = biological target: T4, EphB4(h) (Homo sapiens, UniProt P54760); conditions: atp_concentration=10, read-out: % of control remaining
T4 sequence (P54760 1-987): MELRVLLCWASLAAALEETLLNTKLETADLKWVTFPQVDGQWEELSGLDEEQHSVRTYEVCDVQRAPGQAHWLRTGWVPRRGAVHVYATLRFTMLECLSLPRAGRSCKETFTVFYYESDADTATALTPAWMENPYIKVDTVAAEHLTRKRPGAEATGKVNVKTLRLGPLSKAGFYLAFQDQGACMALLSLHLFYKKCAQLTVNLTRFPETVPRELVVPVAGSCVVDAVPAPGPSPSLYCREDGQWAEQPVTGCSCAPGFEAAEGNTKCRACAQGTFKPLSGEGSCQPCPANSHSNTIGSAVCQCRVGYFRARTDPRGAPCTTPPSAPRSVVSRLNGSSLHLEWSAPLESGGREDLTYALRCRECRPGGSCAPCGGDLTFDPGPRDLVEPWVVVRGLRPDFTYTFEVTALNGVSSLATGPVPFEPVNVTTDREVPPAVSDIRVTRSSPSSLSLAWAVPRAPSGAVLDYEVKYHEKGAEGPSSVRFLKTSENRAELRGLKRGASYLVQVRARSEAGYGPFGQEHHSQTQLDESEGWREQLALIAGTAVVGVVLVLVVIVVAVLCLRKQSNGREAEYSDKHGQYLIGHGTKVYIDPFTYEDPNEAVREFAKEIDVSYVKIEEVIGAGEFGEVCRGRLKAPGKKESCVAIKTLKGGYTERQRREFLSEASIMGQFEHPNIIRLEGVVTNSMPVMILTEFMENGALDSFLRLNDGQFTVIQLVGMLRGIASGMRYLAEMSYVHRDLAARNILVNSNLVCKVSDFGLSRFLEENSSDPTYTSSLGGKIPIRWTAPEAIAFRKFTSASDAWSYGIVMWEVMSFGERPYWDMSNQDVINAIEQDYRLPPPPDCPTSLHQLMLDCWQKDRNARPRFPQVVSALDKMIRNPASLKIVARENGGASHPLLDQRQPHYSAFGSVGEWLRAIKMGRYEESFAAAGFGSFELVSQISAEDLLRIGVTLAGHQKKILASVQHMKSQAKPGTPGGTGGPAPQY
Source text: as §1

[6] = biological target: T5, Rse(h) (Homo sapiens, UniProt Q06418); conditions: atp_concentration=45, read-out: % of control remaining
T5 construct: gene TYRO3
T5 sequence (Q06418 1-890): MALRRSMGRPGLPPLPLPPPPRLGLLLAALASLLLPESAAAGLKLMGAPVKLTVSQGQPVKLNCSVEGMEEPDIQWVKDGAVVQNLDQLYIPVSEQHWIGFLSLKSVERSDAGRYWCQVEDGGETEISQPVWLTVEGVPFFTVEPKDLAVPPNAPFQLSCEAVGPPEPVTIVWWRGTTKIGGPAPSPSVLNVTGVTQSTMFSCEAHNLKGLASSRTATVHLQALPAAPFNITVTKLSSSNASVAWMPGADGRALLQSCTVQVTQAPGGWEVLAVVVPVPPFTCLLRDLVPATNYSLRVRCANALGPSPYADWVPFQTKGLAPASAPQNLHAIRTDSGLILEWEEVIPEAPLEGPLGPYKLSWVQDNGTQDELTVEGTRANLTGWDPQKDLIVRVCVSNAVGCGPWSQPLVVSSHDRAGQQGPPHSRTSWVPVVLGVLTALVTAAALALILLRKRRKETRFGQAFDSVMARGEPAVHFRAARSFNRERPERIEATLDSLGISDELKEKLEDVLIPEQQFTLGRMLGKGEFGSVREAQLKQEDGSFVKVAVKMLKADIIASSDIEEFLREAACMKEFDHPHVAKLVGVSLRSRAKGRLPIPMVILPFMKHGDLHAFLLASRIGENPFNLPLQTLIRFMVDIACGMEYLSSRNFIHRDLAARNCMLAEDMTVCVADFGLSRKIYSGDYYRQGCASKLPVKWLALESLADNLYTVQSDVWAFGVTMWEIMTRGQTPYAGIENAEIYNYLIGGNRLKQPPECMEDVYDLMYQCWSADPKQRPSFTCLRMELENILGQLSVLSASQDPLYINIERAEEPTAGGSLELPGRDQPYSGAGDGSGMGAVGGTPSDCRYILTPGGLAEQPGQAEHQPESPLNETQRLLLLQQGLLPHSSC
Source text: as §1

[7] = biological target: T6, PI3 Kinase (p120γ)(h) (Homo sapiens, UniProt P48736); conditions: atp_concentration=100, read-out: % of control remaining
T6 construct: gene PIK3CG
Source text: as §1

[8] = biological target: ALK(h) (Homo sapiens, UniProt Q9UM73); conditions: atp_concentration=200, read-out: % of control remaining
Source text: as §1

T6 sequence (P48736 whole entry): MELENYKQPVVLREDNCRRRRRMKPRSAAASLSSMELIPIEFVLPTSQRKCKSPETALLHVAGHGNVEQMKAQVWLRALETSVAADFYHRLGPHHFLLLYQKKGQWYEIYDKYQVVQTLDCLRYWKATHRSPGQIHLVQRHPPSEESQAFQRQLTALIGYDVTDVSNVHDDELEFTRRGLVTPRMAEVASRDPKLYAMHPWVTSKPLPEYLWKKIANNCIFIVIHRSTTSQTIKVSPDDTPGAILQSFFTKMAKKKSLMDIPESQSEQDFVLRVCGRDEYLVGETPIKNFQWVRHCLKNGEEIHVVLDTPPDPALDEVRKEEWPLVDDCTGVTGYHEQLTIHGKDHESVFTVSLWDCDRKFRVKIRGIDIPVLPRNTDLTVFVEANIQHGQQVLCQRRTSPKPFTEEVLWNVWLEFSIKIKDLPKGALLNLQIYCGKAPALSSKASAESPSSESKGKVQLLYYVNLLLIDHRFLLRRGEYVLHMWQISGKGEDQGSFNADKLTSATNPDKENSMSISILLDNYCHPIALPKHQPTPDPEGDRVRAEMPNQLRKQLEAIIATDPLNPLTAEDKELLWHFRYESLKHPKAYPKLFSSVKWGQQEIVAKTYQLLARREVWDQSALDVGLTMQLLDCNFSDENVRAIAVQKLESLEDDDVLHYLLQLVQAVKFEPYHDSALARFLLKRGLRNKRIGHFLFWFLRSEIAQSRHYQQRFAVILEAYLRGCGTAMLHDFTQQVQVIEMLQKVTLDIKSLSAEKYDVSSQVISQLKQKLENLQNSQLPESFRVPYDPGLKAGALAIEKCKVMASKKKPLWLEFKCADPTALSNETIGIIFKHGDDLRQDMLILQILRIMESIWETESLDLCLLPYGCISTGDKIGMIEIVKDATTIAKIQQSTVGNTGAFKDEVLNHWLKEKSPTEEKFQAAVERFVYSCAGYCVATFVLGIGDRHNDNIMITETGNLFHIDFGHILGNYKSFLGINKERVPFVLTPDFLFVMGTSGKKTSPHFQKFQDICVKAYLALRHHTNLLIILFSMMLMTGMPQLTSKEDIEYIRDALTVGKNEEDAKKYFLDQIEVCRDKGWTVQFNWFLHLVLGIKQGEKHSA
Chain of ALK(h) (Q9UM73 whole entry): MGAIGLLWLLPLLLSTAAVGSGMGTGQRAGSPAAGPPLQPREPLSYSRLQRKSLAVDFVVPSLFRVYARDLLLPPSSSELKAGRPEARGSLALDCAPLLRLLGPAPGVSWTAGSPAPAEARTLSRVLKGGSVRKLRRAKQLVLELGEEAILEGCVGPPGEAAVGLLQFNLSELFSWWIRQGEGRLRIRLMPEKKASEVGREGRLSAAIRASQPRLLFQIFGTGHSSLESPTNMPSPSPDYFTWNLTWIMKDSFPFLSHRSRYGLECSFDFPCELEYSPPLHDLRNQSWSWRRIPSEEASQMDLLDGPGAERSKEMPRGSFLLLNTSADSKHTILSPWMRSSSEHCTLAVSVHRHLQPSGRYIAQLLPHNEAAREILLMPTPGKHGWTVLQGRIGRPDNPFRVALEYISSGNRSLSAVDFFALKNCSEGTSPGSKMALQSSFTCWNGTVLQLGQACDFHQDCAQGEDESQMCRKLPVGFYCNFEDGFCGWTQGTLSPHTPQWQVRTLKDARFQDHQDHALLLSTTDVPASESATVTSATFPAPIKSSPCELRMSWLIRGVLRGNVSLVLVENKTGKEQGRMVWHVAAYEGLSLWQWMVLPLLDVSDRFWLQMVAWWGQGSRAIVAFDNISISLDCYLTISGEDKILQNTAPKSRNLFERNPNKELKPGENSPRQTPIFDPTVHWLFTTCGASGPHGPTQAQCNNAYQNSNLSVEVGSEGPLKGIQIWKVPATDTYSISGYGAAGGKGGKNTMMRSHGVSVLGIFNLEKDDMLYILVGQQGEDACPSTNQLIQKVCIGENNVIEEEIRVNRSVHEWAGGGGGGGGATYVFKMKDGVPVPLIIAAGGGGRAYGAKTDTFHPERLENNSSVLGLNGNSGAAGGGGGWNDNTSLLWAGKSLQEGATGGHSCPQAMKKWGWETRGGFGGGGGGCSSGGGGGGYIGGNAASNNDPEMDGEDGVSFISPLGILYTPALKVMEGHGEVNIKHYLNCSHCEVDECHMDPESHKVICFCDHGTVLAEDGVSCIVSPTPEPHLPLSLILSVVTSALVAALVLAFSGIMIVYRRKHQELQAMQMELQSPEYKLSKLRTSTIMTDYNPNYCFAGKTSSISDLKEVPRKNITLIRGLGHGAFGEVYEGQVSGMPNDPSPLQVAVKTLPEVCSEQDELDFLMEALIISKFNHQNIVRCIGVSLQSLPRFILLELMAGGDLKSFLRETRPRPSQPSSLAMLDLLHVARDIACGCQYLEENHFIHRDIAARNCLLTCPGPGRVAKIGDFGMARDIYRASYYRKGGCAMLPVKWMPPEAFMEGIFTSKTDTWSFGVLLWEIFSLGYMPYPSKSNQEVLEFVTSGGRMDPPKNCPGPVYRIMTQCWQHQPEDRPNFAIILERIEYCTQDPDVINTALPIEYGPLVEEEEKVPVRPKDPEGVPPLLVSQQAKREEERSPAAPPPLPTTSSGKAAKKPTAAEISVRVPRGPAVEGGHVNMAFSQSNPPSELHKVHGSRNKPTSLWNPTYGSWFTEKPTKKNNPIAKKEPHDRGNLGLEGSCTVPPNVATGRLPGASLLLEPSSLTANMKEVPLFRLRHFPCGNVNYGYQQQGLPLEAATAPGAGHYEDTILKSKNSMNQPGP
T3 sequence (P42336 whole entry): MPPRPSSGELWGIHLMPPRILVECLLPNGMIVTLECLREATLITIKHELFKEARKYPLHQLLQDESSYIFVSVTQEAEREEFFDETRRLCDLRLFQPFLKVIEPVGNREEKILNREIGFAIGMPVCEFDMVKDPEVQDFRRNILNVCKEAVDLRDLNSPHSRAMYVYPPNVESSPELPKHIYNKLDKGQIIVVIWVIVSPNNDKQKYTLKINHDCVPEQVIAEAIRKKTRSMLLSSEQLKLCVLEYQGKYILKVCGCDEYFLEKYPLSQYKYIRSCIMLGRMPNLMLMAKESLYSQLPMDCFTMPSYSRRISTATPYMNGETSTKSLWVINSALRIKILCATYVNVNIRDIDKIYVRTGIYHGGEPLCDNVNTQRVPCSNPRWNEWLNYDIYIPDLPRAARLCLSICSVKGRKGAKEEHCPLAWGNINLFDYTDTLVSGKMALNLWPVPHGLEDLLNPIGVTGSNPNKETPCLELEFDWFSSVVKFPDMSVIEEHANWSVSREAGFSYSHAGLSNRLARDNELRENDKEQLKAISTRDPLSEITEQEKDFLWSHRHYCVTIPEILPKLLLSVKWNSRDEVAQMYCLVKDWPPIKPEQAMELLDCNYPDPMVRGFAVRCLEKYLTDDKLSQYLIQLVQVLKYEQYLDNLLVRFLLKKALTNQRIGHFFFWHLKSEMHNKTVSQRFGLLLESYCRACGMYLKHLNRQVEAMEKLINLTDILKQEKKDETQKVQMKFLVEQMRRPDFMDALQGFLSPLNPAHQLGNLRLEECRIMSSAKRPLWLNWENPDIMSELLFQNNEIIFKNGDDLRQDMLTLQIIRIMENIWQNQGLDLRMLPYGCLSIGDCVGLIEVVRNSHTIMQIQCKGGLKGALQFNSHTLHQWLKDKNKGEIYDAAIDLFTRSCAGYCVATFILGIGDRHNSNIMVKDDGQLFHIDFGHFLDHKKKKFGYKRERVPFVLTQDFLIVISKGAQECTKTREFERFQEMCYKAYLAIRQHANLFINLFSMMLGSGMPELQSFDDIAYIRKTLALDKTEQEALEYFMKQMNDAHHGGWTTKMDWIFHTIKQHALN
T3 sequence (P27986 whole entry partner): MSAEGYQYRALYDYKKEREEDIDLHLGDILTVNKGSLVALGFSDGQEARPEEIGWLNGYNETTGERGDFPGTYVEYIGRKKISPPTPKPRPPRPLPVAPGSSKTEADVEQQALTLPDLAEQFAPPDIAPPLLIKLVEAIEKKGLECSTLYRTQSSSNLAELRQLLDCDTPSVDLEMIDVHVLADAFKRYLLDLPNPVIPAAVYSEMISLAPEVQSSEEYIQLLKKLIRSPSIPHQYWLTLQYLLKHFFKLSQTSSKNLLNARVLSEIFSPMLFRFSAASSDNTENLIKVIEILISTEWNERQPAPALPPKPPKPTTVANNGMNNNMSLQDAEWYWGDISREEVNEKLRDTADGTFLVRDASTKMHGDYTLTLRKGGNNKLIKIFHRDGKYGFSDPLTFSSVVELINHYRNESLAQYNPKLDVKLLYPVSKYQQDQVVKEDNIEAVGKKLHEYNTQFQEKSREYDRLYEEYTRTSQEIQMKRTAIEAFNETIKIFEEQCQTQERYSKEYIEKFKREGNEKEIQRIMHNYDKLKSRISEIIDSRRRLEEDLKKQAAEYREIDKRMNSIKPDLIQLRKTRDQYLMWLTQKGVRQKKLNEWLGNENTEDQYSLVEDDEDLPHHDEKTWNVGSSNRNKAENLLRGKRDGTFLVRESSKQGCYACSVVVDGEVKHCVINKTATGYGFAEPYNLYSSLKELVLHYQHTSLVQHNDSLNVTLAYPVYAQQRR
T2 sequence (Q02750 whole entry): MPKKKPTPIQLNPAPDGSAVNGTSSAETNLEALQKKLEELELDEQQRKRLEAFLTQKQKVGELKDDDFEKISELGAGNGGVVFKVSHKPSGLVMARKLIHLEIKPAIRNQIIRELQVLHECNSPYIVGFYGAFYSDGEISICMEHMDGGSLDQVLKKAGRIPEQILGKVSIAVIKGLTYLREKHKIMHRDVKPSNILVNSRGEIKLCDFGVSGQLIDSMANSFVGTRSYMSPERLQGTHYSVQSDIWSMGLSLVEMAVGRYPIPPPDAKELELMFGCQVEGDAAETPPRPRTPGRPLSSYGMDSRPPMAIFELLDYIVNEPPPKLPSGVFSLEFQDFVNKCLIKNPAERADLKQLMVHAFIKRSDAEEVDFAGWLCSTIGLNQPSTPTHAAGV

Cc1nn(C)cc1-c1cc2c(NC(c3ccc4c(c3)S(=O)(=O)CCC4)C(C)C)ncnc2[nH]1 (stereo not drawn) [ASAP-0011446]
remaining activity at 10 µM ([1]; batch_name=ASAP-0011446-002): 101% | remaining activity at 10 µM ([2]; batch_name=ASAP-0011446-002): 99% | remaining activity at 10 µM ([3]; batch_name=ASAP-0011446-002): 104% | remaining activity at 10 µM ([4]; batch_name=ASAP-0011446-002): 102% | remaining activity at 10 µM ([5]; batch_name=ASAP-0011446-002): 98% | remaining activity at 10 µM ([6]; batch_name=ASAP-0011446-002): 96% | remaining activity at 10 µM ([7]; batch_name=ASAP-0011446-002): 96% | remaining activity at 10 µM ([8]; batch_name=ASAP-0011446-002): 99%

C[C@H](C(=O)O)[C@@H](NC(=O)c1ncnc2[nH]ccc12)c1ccc(Br)cc1 [ASAP-0014722]
remaining activity at 10 µM ([1]; batch_name=ASAP-0014722-002): 97% | remaining activity at 10 µM ([2]; batch_name=ASAP-0014722-002): 89% | remaining activity at 10 µM ([3]; batch_name=ASAP-0014722-002): 97% | remaining activity at 10 µM ([4]; batch_name=ASAP-0014722-002): 100% | remaining activity at 10 µM ([5]; batch_name=ASAP-0014722-002): 105% | remaining activity at 10 µM ([6]; batch_name=ASAP-0014722-002): 87% | remaining activity at 10 µM ([7]; batch_name=ASAP-0014722-002): 97% | remaining activity at 10 µM ([8]; batch_name=ASAP-0014722-002): 99%

COc1ccc([C@H](Cc2nnn[nH]2)NC(=O)c2ncnc3[nH]ccc23)cc1 [ASAP-0015381]
remaining activity at 10 µM ([1]; batch_name=ASAP-0015381-001): 97% | remaining activity at 10 µM ([2]; batch_name=ASAP-0015381-001): 100% | remaining activity at 10 µM ([3]; batch_name=ASAP-0015381-001): 103% | remaining activity at 10 µM ([4]; batch_name=ASAP-0015381-001): 99% | remaining activity at 10 µM ([5]; batch_name=ASAP-0015381-001): 106% | remaining activity at 10 µM ([6]; batch_name=ASAP-0015381-001): 100% | remaining activity at 10 µM ([7]; batch_name=ASAP-0015381-001): 88% | remaining activity at 10 µM ([8]; batch_name=ASAP-0015381-001): 106%
